One assay relates to EL-4 cells. The experiment in a line: Sphingomyelin and ceramide levels in intact EL-4 cells. Type of assay: cell-based, murine. The settings on record: maximally effective concentrations (n=5). The procedure: IL-1β effects on sphingomyelin levels in EL4 cells. Time course (A) and dose response (B). Cells were grown to growth arrest (1-1.5×10^6 cells ml^-1) in DME/Ham's F12 medium (1:1, v/v) containing 10% horse serum and for 48 hours [^3 H]choline (1 μCi ml^-1). On the day of an experiment, cells were resuspended back into the same medium at 10×10^6 cells ml^-1 and stimulated with 40 ng ml^-1 IL-1β for the indicated times (A) or for 30 minutes with increasing concentrations of IL-1β (B). Human IL-1β may be obtained using methods well known to those skilled in the art. Reactions were terminated with CHCl3 :CH3 OH:HCl (100:100:1) containing 10 mM EDTA (82). Lipids in the organic phase extract were dried under N2 and subjected to mild alkaline hydrolysis (0.1 M methanolic KOH for 1 hour at 37° C.) to remove glycerophospholipids. Sphingomyelin was resolved by thin-layer chromatography (TLC) using CHCl3 :CH3 OH:CH3 COOH:H2 O (60:30:8:5) as solvent, identified by iodine vapor staining, and quantified by liquid scintillation spectrometry. As previously reported, the use of [^3 H]choline as a measure of sphingomyelin content was validated by simultaneous phospholipid phosphorus measurements. Each value represents the mean±SEM of triplicate determinations from four experiments in (A), and one representative of four similar studies performed in triplicate in (B).
Effect of IL-1β on ceramide levels in EL-4 cells. Cells were stimulated as in FIG. 12 with IL-1β (40 ng ml^-1) and ceramide contained within the organic phase extract quantified enzymatically using the E. coli diacylglycerol kinase reaction. Lipids were resolved by TLC using CHCl3 :CH3 OH:CH3 COOH (65/15/5) as solvent, autoradiographed and quantified by liquid scintillation spectrometry. Each value represents the mean±SEM of triplicate determinations from 10 experiments.
The murine thymoma EL-4 cell line is a well-defined IL-1 responsive cell line that expresses functional IL-1 receptors. Upon stimulation with IL-1, these cells up-regulate the IL-2 receptor and secrete IL-2 [62]. Initial studies were designed to investigate the effects of IL-1β on cellular sphingomyelin content. Cells, grown in Dulbecco's Modified Eagle's (DME)/Ham's F-12 medium containing 10% horse serum and [^3 H]choline (1 μCi ml^-1), were resuspended back into the same medium at 10×10^6 cells ml^-1 and stimulated with IL-1β. IL-1β is commercially available.

Assay [1] has as its system ceramide-activated protein kinase. To be noted: ref. [40]; cited from earlier work.
The test system of another assay is Raf-1. The experiment in a line: Raf-1 phosphorylation in vitro by renatured CAP kinase. It counts as biochemical, human (recombinant Raf-1). The settings on record: CAP kinase from TNF-stimulated HL-60 cells. The text has this:
The data represent one of five similar experiments.
The data represent one of four similar experiments.
The data represent one of three similar experiments.
CAP kinase was the only kinase to renature from HL-60 cell membranes and that this activity was exclusively membrane-bound, since no 100-110 kDa activity could be renatured from cytosolic fractions. […] Conditions for CAP kinase activity were optimized previously using myelin basic protein (MBP) or a peptide derived from the amino acid sequence surrounding Thr669 of the epidermal growth factor receptor as substrates.
FIG. 17A--HL-60 cells were incubated in serum-free RPMI [RPMI containing 16 mg/ml serine, 8.4 mg/ml asparagine, 16.7 mg/ml glutamine, 25 mM HEPES, pH 7.4 and 0.5 mg/ml each of insulin and transferrin] at 1×106 ml^-1 for 2 hr, followed by stimulation with TNF (1 nM) for 20 min. […] Centrifugation for 5 min at 700×g yielded a post-nuclear supernate from which microsomal membranes were prepared by centrifugation at 250,000×g for 30 min. Microsomal membranes were resuspended into homogenizing buffer and proteins (30×10^6 cell equivalents/lane)were resolved on a 7.5% SDS-polyacrylamide gel. CAP kinase was renatured as described by Liu et al.. […]

With `CCCCCCCCCCCCCC(=O)O[C@@H]1[C@@H](C)[C@@]2(O)[C@@H](C=C(CO)C[C@]3(O)C(=O)C(C)=C[C@@H]23)[C@@H]2C(C)(C)[C@]12OC(C)=O` [TPA, 12-0-tetradecanoylphorbol-13-acetate], in the assay with EL-4 cells, the ceramide response result is given as “failed to elicit a ceramide response”. For TNF-α, in assay [1], the “ED50 for stimulation of ceramide-activated protein kinase in intact cells” value was 0.2 nM. Moreover, in the assay with Raf-1, the “enhancement of Raf-1 phosphorylation” value was 4-5 fold.

The values above are taken from patent US6040149A, “Assay for identifying agents which act on the ceramide-activated protein kinase, kinase suppressor of ras, and methods of using said agents” (priority 1997, dated 2000).
